The target in assay [1] is KDR (phospho-KDR, VEGF165-stimulated HUVEC cells) (Homo sapiens (Human), UniProt P35968). As to the kind of experiment: KDR autophosphorylation ELISA in HUVEC cells (Example G). Type of assay: cell-based. Particulars: cellular activity; KDR autophosphorylation ELISA in HUVEC cells. The method, boiled down: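 Read-out: phospho-KDR in cell lysates by DuoSet IC ELISA, normalised between VEGF-stimulated DMSO wells (100%) and unstimulated wells (0%). Human endothelial cells were starved overnight in serum-free medium, exposed to compound for 1 h, and then pulsed with 100 ng/mL VEGF165 for 5 min.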
Chain of KDR (phospho-KDR, VEGF165-stimulated HUVEC cells) (P35968 20-1356): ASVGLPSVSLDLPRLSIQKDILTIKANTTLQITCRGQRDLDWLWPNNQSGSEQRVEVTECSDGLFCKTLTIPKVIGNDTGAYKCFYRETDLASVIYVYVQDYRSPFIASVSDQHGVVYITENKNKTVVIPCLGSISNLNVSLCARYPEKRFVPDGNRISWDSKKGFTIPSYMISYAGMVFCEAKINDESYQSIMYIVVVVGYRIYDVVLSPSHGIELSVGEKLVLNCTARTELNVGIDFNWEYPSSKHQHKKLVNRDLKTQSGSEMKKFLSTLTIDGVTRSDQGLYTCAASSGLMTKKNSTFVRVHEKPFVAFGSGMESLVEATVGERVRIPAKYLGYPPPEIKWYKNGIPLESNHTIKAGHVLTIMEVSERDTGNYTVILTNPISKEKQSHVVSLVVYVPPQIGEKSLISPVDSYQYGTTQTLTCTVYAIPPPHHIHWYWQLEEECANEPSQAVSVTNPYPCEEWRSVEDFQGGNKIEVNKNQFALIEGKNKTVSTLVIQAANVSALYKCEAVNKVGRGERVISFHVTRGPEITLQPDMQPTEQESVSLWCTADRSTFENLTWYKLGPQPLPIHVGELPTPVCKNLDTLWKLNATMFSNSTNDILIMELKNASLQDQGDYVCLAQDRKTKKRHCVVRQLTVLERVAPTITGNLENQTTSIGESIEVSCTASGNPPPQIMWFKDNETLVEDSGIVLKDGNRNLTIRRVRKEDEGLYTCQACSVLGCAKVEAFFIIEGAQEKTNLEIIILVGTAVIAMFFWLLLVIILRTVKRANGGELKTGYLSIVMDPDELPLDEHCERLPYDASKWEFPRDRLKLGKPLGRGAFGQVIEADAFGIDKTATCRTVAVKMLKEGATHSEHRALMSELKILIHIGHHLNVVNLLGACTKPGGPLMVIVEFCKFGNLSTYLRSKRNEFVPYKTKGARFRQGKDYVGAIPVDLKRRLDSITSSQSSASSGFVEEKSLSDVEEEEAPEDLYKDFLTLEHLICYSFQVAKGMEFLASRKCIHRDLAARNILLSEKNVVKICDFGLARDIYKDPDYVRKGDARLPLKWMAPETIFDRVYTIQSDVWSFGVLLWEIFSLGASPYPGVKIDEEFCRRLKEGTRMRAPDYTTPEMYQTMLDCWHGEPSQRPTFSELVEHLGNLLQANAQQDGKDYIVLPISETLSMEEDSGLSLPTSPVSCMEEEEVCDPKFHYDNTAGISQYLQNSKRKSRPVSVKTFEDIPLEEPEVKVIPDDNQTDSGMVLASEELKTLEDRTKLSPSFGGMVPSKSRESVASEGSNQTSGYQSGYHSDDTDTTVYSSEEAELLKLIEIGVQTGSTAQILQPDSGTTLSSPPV
A general note: In an ELISA, binding on a coated surface is turned into a signal by an enzyme label.

The target of assay [2] is Met (phospho-Met, HGF-stimulated PC-3 prostate cancer cells) (Homo sapiens (Human), UniProt P08581). The assay can be described thus: Met autophosphorylation ELISA in PC-3 cells (Example F). Type of assay: cell-based. Particulars: cellular activity; Met autophosphorylation ELISA in PC-3 cells; read-out: c-Met IC50. The method, boiled down:
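Sandwich ELISA for phospho-Met (panTyr) in PC-3 lysates. Cells starved 3 h serum-free, compound 1 h (8-pt curve, 0.3% DMSO), HGF 100 ng/mL 10 min. 100% = HGF + DMSO; 0% = HGF + reference inhibitor. IC50 by 4-parameter fit.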

The values below come from patent publication US12371428B2 (Exelixis, Inc., priority 2019, dated 2025).

By IC50 is commonly meant the concentration that inhibits the measured activity by half.

Structures can show the parent of a compound that is named as a salt.

Chain of Met (phospho-Met, HGF-stimulated PC-3 prostate cancer cells) (P08581 25-1390): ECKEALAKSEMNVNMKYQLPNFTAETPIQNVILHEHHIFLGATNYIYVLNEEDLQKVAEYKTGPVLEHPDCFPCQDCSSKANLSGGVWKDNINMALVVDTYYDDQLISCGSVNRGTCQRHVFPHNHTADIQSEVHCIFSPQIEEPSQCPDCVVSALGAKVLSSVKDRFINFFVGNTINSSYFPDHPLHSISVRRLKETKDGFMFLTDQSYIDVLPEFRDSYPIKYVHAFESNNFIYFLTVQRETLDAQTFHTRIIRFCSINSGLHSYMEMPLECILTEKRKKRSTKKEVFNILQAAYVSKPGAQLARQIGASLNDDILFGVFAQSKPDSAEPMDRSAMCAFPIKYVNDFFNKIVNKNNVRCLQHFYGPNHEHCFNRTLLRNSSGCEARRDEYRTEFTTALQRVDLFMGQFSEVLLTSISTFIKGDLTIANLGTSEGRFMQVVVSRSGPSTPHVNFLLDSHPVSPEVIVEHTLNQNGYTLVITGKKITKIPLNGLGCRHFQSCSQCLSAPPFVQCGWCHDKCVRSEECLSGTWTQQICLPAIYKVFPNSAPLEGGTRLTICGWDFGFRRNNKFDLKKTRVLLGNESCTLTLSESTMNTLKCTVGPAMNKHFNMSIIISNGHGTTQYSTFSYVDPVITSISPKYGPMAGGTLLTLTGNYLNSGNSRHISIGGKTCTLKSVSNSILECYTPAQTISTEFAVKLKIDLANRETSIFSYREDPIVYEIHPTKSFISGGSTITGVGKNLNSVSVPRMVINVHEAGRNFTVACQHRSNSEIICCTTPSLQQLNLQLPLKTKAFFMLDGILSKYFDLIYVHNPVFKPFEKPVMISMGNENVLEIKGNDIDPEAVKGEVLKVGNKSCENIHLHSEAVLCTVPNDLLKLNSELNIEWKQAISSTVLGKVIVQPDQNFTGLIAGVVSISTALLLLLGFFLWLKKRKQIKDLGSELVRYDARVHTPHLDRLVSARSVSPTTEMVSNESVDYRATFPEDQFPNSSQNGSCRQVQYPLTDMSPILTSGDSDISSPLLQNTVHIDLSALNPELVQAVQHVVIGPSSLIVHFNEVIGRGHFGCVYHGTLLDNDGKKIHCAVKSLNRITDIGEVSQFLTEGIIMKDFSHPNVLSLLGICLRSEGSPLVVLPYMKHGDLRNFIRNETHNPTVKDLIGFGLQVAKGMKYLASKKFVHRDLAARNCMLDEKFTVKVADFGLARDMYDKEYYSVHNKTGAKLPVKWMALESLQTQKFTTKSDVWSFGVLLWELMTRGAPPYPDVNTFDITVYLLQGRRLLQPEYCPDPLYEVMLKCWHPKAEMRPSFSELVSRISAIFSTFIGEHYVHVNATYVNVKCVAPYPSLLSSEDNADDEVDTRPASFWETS

`Cc1nc(C)c(-c2ccc(F)cc2)c(O)c1C(=O)Nc1ccc(Oc2ccnc3cc(C(C)C)cnc23)cc1` [Compound 598, 5-(4-Fluorophenyl)-4-hydroxy-2,6-dimethyl-N-[4-[(7-propan-2-yl-1,5-naphthyridin-4-yl)oxy]phenyl]pyridine-3-carboxamide]: the IC50 in assay [1] and in assay [2] was less than 100 nM each time.

As for `COc1cc2nccc(Oc3ccc(NC(=O)c4cnc(C)c(-c5ccc(F)cc5)c4O)cc3F)c2nc1OC` [Compound 28, N-[4-[(6,7-Dimethoxy-1,5-naphthyridin-4-yl)oxy]-3-fluorophenyl]-5-(4-fluorophenyl)-4-hydroxy-6-methylpyridine-3-carboxamide], the IC50 in assay [1] and in assay [2] was less than 100 nM each time.

In the case of `Cc1ncc(C(=O)Nc2ccc(Oc3ccnc4cc(C(N)=O)cnc34)c(F)c2)c(O)c1-c1ccc(F)cc1` [Compound 577, 8-[2-Fluoro-4-[[5-(4-fluorophenyl)-4-hydroxy-6-methylpyridine-3-carbonyl]amino]phenoxy]-1,5-naphthyridine-3-carboxamide], the IC50 in assay [1] and in assay [2] was less than 100 nM in each case.

With `COc1cnc2c(Oc3ccc(NC(=O)c4cn(C)c(C#N)c(-c5ccc(F)cc5)c4=O)cc3F)ccnc2c1` [Compound 586, 6-Cyano-N-[3-fluoro-4-[(7-methoxy-1,5-naphthyridin-4-yl)oxy]phenyl]-5-(4-fluorophenyl)-1-methyl-4-oxopyridine-3-carboxamide], the values for the IC50 in assay [1] and in assay [2] were more than 300 nM and 100 to 300 nM, respectively.

Turning to `COc1cnc2c(Oc3ccc(NC(=O)c4cn(C(C)(C)C)c(C)c(-c5ccc(F)cc5)c4=O)cc3F)ccnc2c1` [Compound 166, 1-tert-Butyl-N-[3-fluoro-4-[(7-methoxy-1,5-naphthyridin-4-yl)oxy]phenyl]-5-(4-fluorophenyl)-6-methyl-4-oxopyridine-3-carboxamide], the results for the IC50 in assay [1] and in assay [2] were more than 300 nM and less than 100 nM, respectively.

For the compound `COc1cc2nccc(Oc3ccc(NC(=O)c4cnc(C(C)(C)C)c(-c5ccc(F)cc5)c4O)cc3F)c2nc1OC` [Compound 155, 6-tert-Butyl-N-[4-[(6,7-dimethoxy-1,5-naphthyridin-4-yl)oxy]-3-fluorophenyl]-5-(4-fluorophenyl)-4-hydroxypyridine-3-carboxamide], the IC50 in assay [1] was more than 300 nM; in assay [2], 100 to 300 nM.

On to `Cc1ncc(C(=O)Nc2ccc(Oc3ccnc4cc(C(F)(F)F)cnc34)c(F)c2)c(O)c1-c1ccc(F)cc1` [Compound 151, 5-(4-Fluorophenyl)-N-[3-fluoro-4-[[7-(trifluoromethyl)-1,5-naphthyridin-4-yl]oxy]phenyl]-4-hydroxy-6-methylpyridine-3-carboxamide], for which the IC50 in assay [1] and in assay [2] was less than 100 nM throughout.

For `Cc1nc2c(Oc3ccc(NC(=O)c4cnc(C)c(-c5ccc(F)cc5)c4O)cc3)ccnc2cc1-c1cccnc1` [Compound 616, 5-(4-Fluorophenyl)-4-hydroxy-6-methyl-N-[4-[(6-methyl-7-pyridin-3-yl-1,5-naphthyridin-4-yl)oxy]phenyl]pyridine-3-carboxamide hydrochloride], the IC50 is less than 100 nM in assay [1] and more than 300 nM in assay [2].

Regarding `Cc1cc2c(Oc3ccc(NC(=O)c4cnc(C)c(-c5ccc(F)cc5)c4O)cc3F)ccnc2cn1` [Compound 645, N-[3-fluoro-4-[(6-methyl-1,7-naphthyridin-4-yl)oxy]phenyl]-5-(4-fluorophenyl)-4-hydroxy-6-methylpyridine-3-carboxamide], the IC50 in assay [1] and in assay [2] was less than 100 nM each time.

Regarding `Cc1nc2c(Oc3ccc(NC(=O)c4cn(C(C)C)c(C)c(-c5ccc(F)cc5)c4=O)cc3)ccnc2cc1-c1cccnc1` [Compound 613, 5-(4-Fluorophenyl)-6-methyl-N-[4-[(6-methyl-7-pyridin-3-yl-1,5-naphthyridin-4-yl)oxy]phenyl]-4-oxo-1-propan-2-ylpyridine-3-carboxamide hydrochloride], the results for the IC50 in assay [1] and in assay [2] were more than 300 nM and less than 100 nM, respectively.

Turning to `COc1cc2nccc(Oc3ccc(NC(=O)c4cn(-c5cccnc5)cc(-c5ccc(F)cc5)c4=O)cc3F)c2nc1OC` [Compound 125, N-[4-[(6,7-Dimethoxy-1,5-naphthyridin-4-yl)oxy]-3-fluorophenyl]-5-(4-fluorophenyl)-4-oxo-1-pyridin-3-ylpyridine-3-carboxamide], the IC50 is more than 300 nM in assay [1] and less than 100 nM in assay [2].

Turning to `COc1cc2ncnc(Oc3ccc(NC(=O)c4cn(-c5cnn(C)c5)cc(-c5ccc(F)cc5)c4=O)cc3F)c2nc1OC` [Compound 637, N-[4-(6,7-dimethoxyprido[3,2-d]pyrimidin-4-yl)oxy-3-fluorophenyl]-5-(4-fluorophenyl)-1-(1-methylpyrazol-4-yl)-4-oxopyridine-3-carboxamide], the figures for the IC50 in assay [1] and in assay [2] were more than 300 nM and less than 100 nM, respectively.

Turning to `COc1nc2c(Oc3ccc(NC(=O)c4cncc(-c5ccc(F)cc5)c4O)cc3F)ccnc2cc1Br` [Compound 129, N-[4-[(7-Bromo-6-methoxy-1,5-naphthyridin-4-yl)oxy]-3-fluorophenyl]-5-(4-fluorophenyl)-4-hydroxypyridine-3-carboxamide], the IC50 was less than 100 nM in assay [1] and 100 to 300 nM in assay [2].

As to `CNC(=O)c1cnc2c(Oc3ccc(NC(=O)c4cnc(C)c(-c5ccc(F)cc5)c4O)cc3F)ccnc2c1` [Compound 578, 8-[2-Fluoro-4-[[5-(4-fluorophenyl)-4-hydroxy-6-methylpyridine-3-carbonyl]amino]phenoxy]-N-methyl-1,5-naphthyridine-3-carboxamide], the IC50 in assay [1] and in assay [2] was more than 300 nM in each case.

Turning to `CNc1c(-c2ccc(F)cc2)c(=O)c(C(=O)Nc2ccc(Oc3ccnc4cc(OC)cnc34)c(F)c2)cn1C` [Compound 585, N-[3-Fluoro-4-[(7-methoxy-1,5-naphthyridin-4-yl)oxy]phenyl]-5-(4-fluorophenyl)-1-methyl-6-(methylamino)-4-oxopyridine-3-carboxamide], the IC50 is more than 300 nM in assay [1] and less than 100 nM in assay [2].

Turning to `COc1cc2c(Oc3ccc(NC(=O)c4cn(C5CC5)c(C)c(-c5ccc(F)cc5)c4=O)cc3F)ccnc2cn1` [Compound 640, 1-cyclopropyl-N-[3-fluoro-4-[(6-methoxy-1,7-naphthyridin-4-yl)oxy]phenyl]-5-(4-fluorophenyl)-6-methyl-4-oxopyridine-3-carboxamide], the figures for the IC50 in assay [1] and in assay [2] were more than 300 nM and less than 100 nM, respectively.

In the case of `COc1cc2c(Oc3ccc(NC(=O)c4cnc(C)c(-c5ccc(F)cc5)c4O)cc3)ccnc2cn1` [Compound 644, 5-(4-fluorophenyl)-4-hydroxy-N-[4-[(6-methoxy-1,7-naphthyridin-4-yl)oxy]phenyl]-6-methylpyridine-3-carboxamide], the IC50 in assay [1] and in assay [2] was less than 100 nM in each case.

Consider `COc1cc2nccc(Oc3ccc(NC(=O)c4cn(C(C)C)c(C)c(-c5ccc(F)cc5)c4=O)cc3F)c2nc1NS(C)(=O)=O` [Compound 581, N-[3-Fluoro-4-[[6-(methanesulfonamido)-7-methoxy-1,5-naphthyridin-4-yl]oxy]phenyl]-5-(4-fluorophenyl)-6-methyl-4-oxo-1-propan-2-ylpyridine-3-carboxamide], for which the IC50 in assay [1] is more than 300 nM; in assay [2], 100 to 300 nM.

With `COc1cc2nccc(Oc3ccc(NC(=O)c4cn(C(C)(C)C)c(C)c(-c5ccc(F)cc5)c4=O)cc3F)c2nc1OC` [Compound 139, 1-tert-Butyl-N-[4-[(6,7-dimethoxy-1,5-naphthyridin-4-yl)oxy]-3-fluorophenyl]-5-(4-fluorophenyl)-6-methyl-4-oxopyridine-3-carboxamide], the results for the IC50 in assay [1] and in assay [2] were more than 300 nM and 100 to 300 nM, respectively.

For `COc1cc2nccc(Oc3ccc(NC(=O)c4cn(CCN5CCOCC5)cc(-c5ccc(F)cc5)c4=O)cc3F)c2nc1OC` [Compound 157, N-[4-[(6,7-Dimethoxy-1,5-naphthyridin-4-yl)oxy]-3-fluorophenyl]-5-(4-fluorophenyl)-1-(2-morpholin-4-ylethyl)-4-oxopyridine-3-carboxamide], the figures for the IC50 in assay [1] and in assay [2] were 100 to 300 nM and less than 100 nM, respectively.

On to `CCn1nc(C(=O)Nc2ccc(Oc3ccnc4cc(OC)c(OC)nc34)c(F)c2)c(=O)c(-c2ccc(F)cc2)c1C` [Compound 568, N-[4-[(6,7-Dimethoxy-1,5-naphthyridin-4-yl)oxy]-3-fluorophenyl]-1-ethyl-5-(4-fluorophenyl)-6-methyl-4-oxopyridazine-3-carboxamide], for which the IC50 in assay [1] and in assay [2] was less than 100 nM each time.

With `COc1cc2nccc(Oc3ccc(NC(=O)c4cnc(C)c(-c5ccc(F)cc5)c4O)cc3F)c2nc1NS(C)(=O)=O` [Compound 584, N-[3-Fluoro-4-[[6-(methanesulfonamido)-7-methoxy-1,5-naphthyridin-4-yl]oxy]phenyl]-5-(4-fluorophenyl)-4-hydroxy-6-methylpyridine-3-carboxamide], the IC50 in assay [1] and in assay [2] was less than 100 nM throughout.

With `COc1cc2nccc(Oc3ccc(NC(=O)c4cn(C(C)C)c(C)c(-c5ccc(F)cc5)c4=O)cc3F)c2nc1O` [Compound 580, N-[3-Fluoro-4-[(6-hydroxy-7-methoxy-1,5-naphthyridin-4-yl)oxy]phenyl]-5-(4-fluorophenyl)-6-methyl-4-oxo-1-propan-2-ylpyridine-3-carboxamide], the IC50 was more than 300 nM in assay [1] and less than 100 nM in assay [2].
